Where two headings read alike, the source gives them in different places.
Columns and labels:
[1] = Pharmacokinetic profile in Sprague Dawley rats; format: in vivo, rat; details: SD rats
CDK12 and CDK13 = details: VCaP cells
Procedure: After treatment of varying conditions, cell lysates were prepared using RIPA buffer (ThermoFisher Scientific) supplemented with cOmplete protease inhibitor cocktail tablets (Sigma-Aldrich). The Pierce BCA Protein Assay Kit ([…]) was used to determine the protein concentrations. Proteins with an equal amount from each sample were loaded on NuPAGE 3–8% Tris-Acetate or 4–12% Bis-Tris protein gels (ThermoFisher Scientific) and subsequently transferred to membranes, which were blocked using 5% nonfat milk. Following blocking at room temperature for 1 h, the membrane was further incubated with varying primary antibodies at 4°C overnight. HRP-conjugated secondary antibodies were used for detection, and membrane imaging was conducted using an Odyssey Fc Imager (LI-COR Biosciences).

VCaP cells [2] = test: Cell viability assay (CellTiter-Glo, 5 days); format: cell-based, human
Procedure: (§1) Cells were seeded in 96-well plates and incubated at 37°C with 5% CO2 overnight. A series of compound dilutions were added into the cells. After 5 days incubation, cell proliferation was tested using the CellTiter-Glo assay (Promega) according to the manufacturer’s protocol. Luminescence was measured using the Infinite M1000 Pro plate reader (Tecan). Data analysis was conducted using GraphPad Prism software.

RWPE1 = test: Cell viability assay (CellTiter-Glo, 5 days); format: cell-based; details: Homo sapiens, RWPE-1, 120 h; RWPE1, 5 days of treatment, Figure 1F
Procedure: as §1

CWR22RV1 = test: Cell viability assay (CellTiter-Glo, 5 days); format: cell-based; details: Homo sapiens, 120 h; CWR22RV1, 5 days of treatment, Figure 1F
Procedure: as §1

WPMY-1 = test: Cell viability assay (CellTiter-Glo, 5 days); format: cell-based; details: Homo sapiens, 120 h; WPMY-1, 5 days of treatment, Figure 1F
Procedure: as §1

PC3 = test: Cell viability assay (CellTiter-Glo, 5 days); format: cell-based; details: Homo sapiens, PC-3, 120 h; PC3, 5 days of treatment, Figure 1F
Procedure: as §1

22RV1 = test: Cell viability assay (CellTiter-Glo, 5 days); format: cell-based; details: Homo sapiens, 120 h; 22RV1, 5 days of treatment, Figure 1F
Procedure: as §1

DU145 = test: Cell viability assay (CellTiter-Glo, 5 days); format: cell-based; details: Homo sapiens, DU-145, 120 h; DU145, 5 days of treatment, Figure 1F
Procedure: as §1

SK-BR-3 = test: Cell viability assay (CellTiter-Glo, 5 days); format: cell-based; details: Homo sapiens, 120 h; SK-BR-3, 5 days of treatment, Figure 1F
Procedure: as §1

BPH-1 = test: Cell viability assay (CellTiter-Glo, 5 days); format: cell-based; details: Homo sapiens, 120 h; BPH-1, 5 days of treatment, Figure 1F
Procedure: as §1

MCF10A = test: Cell viability assay (CellTiter-Glo, 5 days); format: cell-based; details: Homo sapiens, MCF-10A, 120 h, 5 days of treatment, Figure 1F
Procedure: as §1

MFM223 = test: Cell viability assay (CellTiter-Glo, 5 days); format: cell-based; details: Homo sapiens, MFM-223, 120 h; MFM223, 5 days of treatment, Figure 1F
Procedure: as §1

MCF7 = test: Cell viability assay (CellTiter-Glo, 5 days); format: cell-based; details: Homo sapiens, 120 h; MCF7, 5 days of treatment, Figure 1F
Procedure: as §1

PNT2 = test: Cell viability assay (CellTiter-Glo, 5 days); format: cell-based; details: Homo sapiens, 120 h; PNT2, 5 days of treatment, Figure 1F
Procedure: as §1

MCF12A = test: Cell viability assay (CellTiter-Glo, 5 days); format: cell-based; details: Homo sapiens, MCF-12A, 120 h, 5 days of treatment, Figure 1F
Procedure: as §1

LAPC4 = test: Cell viability assay (CellTiter-Glo, 5 days); format: cell-based; details: Homo sapiens, 120 h; LAPC4, 5 days of treatment, Figure 1F
Procedure: as §1

MDA-MB-468 = test: Cell viability assay (CellTiter-Glo, 5 days); format: cell-based; details: Homo sapiens, 120 h; MDA-MB-468, 5 days of treatment, Figure 1F
Procedure: as §1

PrEC = test: Cell viability assay (CellTiter-Glo, 5 days); format: cell-based; details: Homo sapiens, 120 h, 5 days of treatment, Figure 1F
Procedure: as §1

VCaP cells [3] = test: Comet assay; format: cell-based, human; details: 100 nM, 12 h
Procedure: VCaP cells were seeded in 6-well plates one day prior to treatment. […] After 12 h incubation, the cells were trypsinized and resuspended at a concentration of 1 × 10^5 cells/mL in ice-cold PBS. The OxiSelect Comet Assay Kit (Cell Biolabs, STA-351) was used to assess DNA damage. Following the manufacturer’s protocol, cells were combined with pre-heated comet agarose at a 1:10 ratio, mixed thoroughly, and then transferred onto slides. The slides were incubated horizontally in the dark at 4°C for 20 min. Afterward, they were immersed in pre-chilled lysis buffer for 40 min at 4°C in the dark, followed by a 30-min incubation in pre-chilled alkaline solution at 4°C in the dark. Electrophoresis was then performed using alkaline solution at 30 V for 20 min. After electrophoresis, the slides were rinsed three times with pre-chilled deionized water, following with 70% ethanol for 5 min and completely dried at 37°C for 30 min. Subsequently, 100 μL of diluted Vista Green DNA dye was applied to each well. After 15 min incubation at room temperature, the comets were observed using a fluorescence microscope and quantified using ImageJ. The quantification figure was generated using GraphPad Prism software.

[4] = VCaP cell viability, linker optimization, Figure S4B, read-out: VCaP IC50

O=C1CCC(N2C(=O)c3ccc(N4CCC(N5CCN(c6ccc(N(C(=O)NCc7ccccc7)C7CCC(Nc8ncc9ccccc9n8)CC7)cn6)CC5)CC4)cc3C2=O)C(=O)N1 (centres unmarked) [YJ1205]
AUC(0-) ([1]; i.v. 2.5 mg/kg): 10615.68 ng·h/mL
AUC(0-t) ([1]; i.v. 2.5 mg/kg): 10519.6 ng·h/mL
CL ([1]; i.v. 2.5 mg/kg): 3.9307 mL/min/kg
Cmax ([1]; i.v. 2.5 mg/kg): 4140 nM
T1/2 ([1]; i.v. 2.5 mg/kg): 3.81 h
Tmax ([1]; i.v. 2.5 mg/kg): 0.08 h
AUC(0-) ([1]; oral 10 mg/kg): 6842.8 ng·h/mL
AUC(0-t) ([1]; oral 10 mg/kg): 6679.0 ng·h/mL
Cmax ([1]; oral 10 mg/kg): 660 nM
T1/2 ([1]; oral 10 mg/kg): 4.2 h
Tmax ([1]; oral 10 mg/kg): 4.7 h
CDK12/13 degradation (immunoblot) (CDK12 and CDK13): potent degradation effects

CN1C(=O)CCC(N2C(=O)c3cccc(OCC(=O)N4CCN(c5ccc(N(C(=O)NCc6ccccc6)C6CCC(Nc7ncc8ccccc8n7)CC6)cc5)CC4)c3C2=O)C1=O (centres unmarked) [YJ1078]
IC50 (VCaP cells [2]; VCaP cells, 5 days, Figure S1E, read-out: IC50): > 3000 nM
CDK12/13 degradation (immunoblot) (CDK12 and CDK13): did not affect target protein levels

CN(C)C/C=C/C(=O)Nc1ccc(C(=O)N2CCC[C@@H](Nc3ncc(Cl)c(-c4c[nH]c5ccccc45)n3)C2)cc1 [THZ531, reference compound]
IC50 (VCaP cells [2]; Homo sapiens, VCaP, 120 h, VCaP, 5 days of treatment, Figure 1F, read-out: IC50): 33.5 nM
IC50 (RWPE1): 404 nM
IC50 (CWR22RV1): 69.7 nM
IC50 (WPMY-1): 311 nM
IC50 (PC3): 120 nM
IC50 (22RV1): 85.7 nM
IC50 (DU145): 230 nM
IC50 (SK-BR-3): 64.8 nM
IC50 (BPH-1): 356 nM
IC50 (MCF10A): 396 nM
IC50 (MFM223): 33.3 nM
IC50 (MCF7): 356 nM
IC50 (PNT2): 1530 nM
IC50 (MCF12A): 310 nM
IC50 (LAPC4): 6.38 nM
IC50 (MDA-MB-468): 158 nM
IC50 (PrEC): 335 nM
DNA damage (tail moment) (VCaP cells [3]): significant increase in the tail moment

O=C1CCC(N2C(=O)c3ccc(-c4cccc(C(=O)N5CCN(c6ccc(N(C(=O)NCc7ccccc7)C7CCC(Nc8ncc9ccccc9n8)CC7)cc6)CC5)c4)cc3C2=O)C(=O)N1 (centres unmarked) [YJ1130]
IC50 (VCaP cells [2]; [4]): 126 nM
CDK12/13 degradation (immunoblot) (CDK12 and CDK13): significantly decreased CDK12/13 degradation and cell viability

O=C1CCC(N2C(=O)c3ccc(N4CCC(N5CCN(c6ccc(N(C(=O)NCc7ccccc7)C7CCC(Nc8ncc9ccccc9n8)CC7)cc6)CC5)C4)cc3C2=O)C(=O)N1 (centres unmarked) [YJ1096]
IC50 (VCaP cells [2]; [4]): 97.8 nM
CDK12/13 degradation (immunoblot) (CDK12 and CDK13): significantly decreased CDK12/13 degradation and cell viability

O=C1CCC(N2C(=O)c3ccc(C=CC(=O)N4CCN(c5ccc(N(C(=O)NCc6ccccc6)C6CCC(Nc7ncc8ccccc8n7)CC6)cc5)CC4)cc3C2=O)C(=O)N1 (centres unmarked) [YJ1114]
IC50 (VCaP cells [2]; [4]): 2020 nM
CDK12/13 degradation (immunoblot) (CDK12 and CDK13): significantly decreased CDK12/13 degradation and cell viability

Source: paper PMC11513842, “Development of an orally bioavailable CDK12/13 degrader and induction of synthetic lethality with AKT pathway inhibition” (Cell Reports Medicine, 2024)
